Assay results from patent US7420001B2 (Wyeth, priority 2003, dated 2008).
Read-outs that look alike come from different tables or passages of the source.

Assays:
MMP-13 = biological target: T1, MMP-13 (Homo sapiens, UniProt P45452); assay: In-vitro fluorescence assay of MMP-13 activity; type: biochemical
T1 construct: made in house

MMP-2 = biological target: T2, MMP-2 (Homo sapiens, UniProt P08253); assay: In-vitro fluorescence assay of MMP-2 activity; type: biochemical; details: recombinant human MMP-2; read-out: MMP-2 IC50
T2 construct: purchased Oncogene Research Products (Calbiochem) PF023
T2 sequence (P08253 110-660): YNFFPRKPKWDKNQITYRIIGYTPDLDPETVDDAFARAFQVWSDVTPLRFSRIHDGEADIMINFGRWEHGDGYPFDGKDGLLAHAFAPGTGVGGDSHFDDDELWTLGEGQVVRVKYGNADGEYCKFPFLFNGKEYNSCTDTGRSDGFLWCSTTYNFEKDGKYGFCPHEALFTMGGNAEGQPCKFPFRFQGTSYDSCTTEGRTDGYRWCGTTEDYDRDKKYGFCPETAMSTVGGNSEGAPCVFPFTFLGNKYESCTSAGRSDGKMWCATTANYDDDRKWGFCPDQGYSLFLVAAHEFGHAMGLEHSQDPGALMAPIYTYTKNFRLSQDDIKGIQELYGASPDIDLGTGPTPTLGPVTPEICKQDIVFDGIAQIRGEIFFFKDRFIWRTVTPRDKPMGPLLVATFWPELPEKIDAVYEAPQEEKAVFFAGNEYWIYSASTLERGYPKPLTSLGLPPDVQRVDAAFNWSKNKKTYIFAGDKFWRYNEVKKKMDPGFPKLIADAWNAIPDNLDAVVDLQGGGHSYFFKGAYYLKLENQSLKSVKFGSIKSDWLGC

[1] = recombinant human catalytic domain of MMP-13, read-out: MMP-13 IC50
[2] = MMP-13 IC50, recombinant human catalytic domain of MMP-13

In the case of CCc1ccc2oc(C(=O)Nc3ccc(-c4ccc(S(=O)(=O)N[C@H](C(=O)O)C(C)C)cc4)cc3)c(C)c2c1O [Example 90, N-[(4′-{[(5-Ethyl-4-hydroxy-3-methyl-1-benzofuran-2-yl)carbonyl]amino}-1,1′-biphenyl-4-yl)sulfonyl]-L-valine], the IC50 (MMP-13; [1]) is reported as 7.1 nM and the IC50 (MMP-2) is reported as 1760 nM.
In the case of Cc1c(C(=O)Nc2ccc(-c3ccc(S(=O)(=O)N[C@H](C(=O)O)C(C)C)cc3)cc2)oc2cccc(C3COC(C)(C)O3)c12 (stereo partly drawn) [Example 91, N-{[4′-({[4-(2,2-Dimethyl-1,3-dioxolan-4-yl)-3-methyl-1-benzofuran-2-yl]carbonyl}amino)-1,1′-biphenyl-4-yl]sulfonyl}-L-valine], the IC50 (MMP-13; [1]) is reported as 6.9 nM and the IC50 (MMP-2) is reported as 2230 nM.
Cc1c(C(=O)Nc2ccc(-c3ccc(S(=O)(=O)N[C@H](C(=O)O)C(C)C)cc3)cc2)oc2cccc(CO)c12 [Example 92, N-{[4′-({[4-(Hydroxymethyl)-3-methyl-1-benzofuran-2-yl]carbonyl}amino)-1,1′-biphenyl-4-yl]sulfonyl}-L-valine] gave an IC50 (MMP-13; [1]) of 25 nM and an IC50 (MMP-2) of 3760 nM.
Cc1cccc2oc(C(=O)Nc3ccc(-c4ccc(S(=O)(=O)N[C@H](C(=O)O)C(C)C)cc4)cc3)c(C)c12 [Example 93, N-[(4′-{[(3,4-Dimethyl-1-benzofuran-2-yl)carbonyl]amino}-1,1′-biphenyl-4-yl)sulfonyl]-L-valine] showed an IC50 (MMP-13; [1]) of 4.8 nM and an IC50 (MMP-2) of 1150 nM.
For CC(=O)c1cccc2oc(C(=O)Nc3ccc(-c4ccc(S(=O)(=O)N[C@H](C(=O)O)C(C)C)cc4)cc3)c(C)c12 [Example 94, N-[(4′-{[(4-Acetyl-3-methyl-1-benzofuran-2-yl)carbonyl]amino}-1,1′-biphenyl-4-yl)sulfonyl]-L-valine], the IC50 (MMP-13; [1]) was 4.5 nM and the IC50 (MMP-2) was 673 nM.
For Cc1c(C(=O)Nc2ccc(-c3ccc(S(=O)(=O)N[C@H](C(=O)O)C(C)C)cc3)cc2)oc2cccc(C(C)O)c12 (stereo partly drawn) [Example 95, N-{[4′-({[4-(1-Hydroxyethyl)-3-methyl-1-benzofuran-2-yl]carbonyl}amino)-1,1′-biphenyl-4-yl]sulfonyl}-L-valine], the IC50 (MMP-13; [1]) was 8.4 nM and the IC50 (MMP-2) was 2070 nM.
C=Cc1cccc2oc(C(=O)Nc3ccc(-c4ccc(S(=O)(=O)N[C@H](C(=O)O)C(C)C)cc4)cc3)c(C)c12 [Example 96, N-[(4′-{[(3-methyl-4-vinyl-1-benzofuran-2-yl)carbonyl]amino}-1,1′-biphenyl-4-yl)sulfonyl]-L-valine] was tested, and the IC50 (MMP-13; [1]) was 4.4 nM and the IC50 (MMP-2) was 625 nM.
Work on Cc1c(C(=O)Nc2ccc(-c3ccc(S(=O)(=O)N[C@H](C(=O)O)C(C)C)cc3)cc2)oc2cccc(C(O)CO)c12 (stereo partly drawn) [Example 97, N-{[4′-({[4-(1,2-dihydroxyethyl)-3-methyl-1-benzofuran-2-yl]carbonyl}amino)-1,1′-biphenyl-4-yl]sulfonyl}-L-valine] yielded an IC50 (MMP-13; [1]) of 14 nM and an IC50 (MMP-2) of 2860 nM.
In the case of C=Cc1cccc2oc(C(=O)Nc3ccc(-c4ccc(S(=O)(=O)N(C)[C@H](C(=O)O)C(C)C)cc4)cc3)c(C)c12 [Example 98, N-methyl-N-[(4′-{[(3-methyl-4-vinyl-1-benzofuran-2-yl)carbonyl]amino}-1,1′-biphenyl-4-yl)sulfonyl]-L-valine], the IC50 (MMP-13; [1]) is reported as 84.1 nM and the IC50 (MMP-2) is reported as 890 nM.
Cc1c(C(=O)Nc2ccc(-c3ccc(S(=O)(=O)N(C)[C@H](C(=O)O)C(C)C)cc3)cc2)oc2cccc(C(O)CO)c12 (stereo partly drawn) [Example 99, N-{[4′-({[4-(1,2-dihydroxyethyl)-3-methyl-1-benzofuran-2-yl]carbonyl}amino)-1,1′-biphenyl-4-yl]sulfonyl}-N-methyl-L-valine] gave an IC50 (MMP-13; [1]) of 70 nM and an IC50 (MMP-2) of 13200 nM.
With COCc1cccc2oc(C(=O)Nc3ccc(-c4ccc(S(=O)(=O)N[C@H](C(=O)O)C(C)C)cc4)cc3)c(C)c12 [Example 100, N-{[4′-({[4-(methoxymethyl)-3-methyl-1-benzofuran-2-yl]carbonyl}amino)-1,1′-biphenyl-4-yl]sulfonyl}-L-valine] the IC50 (MMP-13; [1]) was 2.6 nM and the IC50 (MMP-2) was 2400 nM.
COC(C)c1cccc2oc(C(=O)Nc3ccc(-c4ccc(S(=O)(=O)N[C@H](C(=O)O)C(C)C)cc4)cc3)c(C)c12 (stereo partly drawn) [Example 101, N-{[4′-({[4-(1-methoxyethyl)-3-methyl-1-benzofuran-2-yl]carbonyl}amino)-1,1′-biphenyl-4-yl]sulfonyl}-L-valine] gave an IC50 (MMP-13; [1]) of 5.8 nM and an IC50 (MMP-2) of 2000 nM.
For COCCc1cccc2oc(C(=O)Nc3ccc(-c4ccc(S(=O)(=O)N[C@H](C(=O)O)C(C)C)cc4)cc3)c(C)c12 [Example 102, N-{[4′-({[4-(2-methoxyethyl)-3-methyl-1-benzofuran-2-yl]carbonyl}amino)-1,1′-biphenyl-4-yl]sulfonyl}-L-valinate], the IC50 (MMP-13; [1]) was 5.7 nM and the IC50 (MMP-2) was 1520 nM.
Work on CC(C)Oc1cccc2oc(C(=O)Nc3ccc(-c4ccc(S(=O)(=O)N[C@H](C(=O)O)C(C)C)cc4)cc3)cc12 [Example 103, N-[(4′-{[(4-Isopropoxy-1-benzofuran-2-yl)carbonyl]amino}-1,1′-biphenyl-4-yl)sulfonyl]-L-valine] yielded an IC50 (MMP-13; [1]) of 3.9 nM and an IC50 (MMP-2) of 78.4 nM.
COc1ccc2oc(C(=O)Nc3ccc(-c4ccc(S(=O)(=O)N[C@H](C(=O)O)C(C)C)cc4)cc3)cc2c1 [Example 104, N-[(4′-{[(5-methoxy-1-benzofuran-2-yl)carbonyl]amino}-1,1′-biphenyl-4-yl)sulfonyl]-L-valine] was tested, and the IC50 (MMP-13; [1]) was 0.7 nM and the IC50 (MMP-2) was 1.5 nM.
CCCOc1cccc2oc(C(=O)Nc3ccc(-c4ccc(S(=O)(=O)N[C@H](C(=O)O)C(C)C)cc4)cc3)c(C)c12 [Example 107, (S)-3-Methyl-2-{4′-[(3-methyl-4-propoxy-benzofuran-2-carbonyl)-amino]-biphenyl-4-sulfonylamino}-butyric acid] showed an IC50 (MMP-13; [1]) of 11 nM and an IC50 (MMP-2) of 4220 nM.
For Cc1c(C(=O)Nc2ccc(-c3ccc(S(=O)(=O)N[C@H](C(=O)O)C(C)C)cc3)cc2)oc2cccc(OC(C)C)c12 [Example 108, (S)-2-{4′-[(4-Isopropoxy-3-methyl-benzofuran-2-carbonyl)-amino]-biphenyl-4-sulfonylamino}-3-methyl-butyric acid], the IC50 (MMP-13; [1]) was 13 nM and the IC50 (MMP-2) was 4290 nM.
Cc1c(C(=O)Nc2ccc(-c3ccc(S(=O)(=O)N[C@H](C(=O)O)C(C)C)cc3)cc2)oc2cccc(-c3ccncc3)c12 [Example 112, (S)-3-Methyl-2-{4′-[(3-methyl-4-pyridin-4-yl-benzofuran-2-carbonyl)-amino]-biphenyl-4-sulfonylamino}-butyric acid] was tested, and the IC50 (MMP-13; [1]) was 8.5 nM and the IC50 (MMP-2) was 2670 nM.
In the case of Cc1c(C(=O)Nc2ccc(-c3ccc(S(=O)(=O)N[C@H](C(=O)O)C(C)C)cc3)cc2)oc2cccc(-c3ccoc3)c12 [Example 113, (S)-2-{4′-[(4-Furan-3-yl-3-methyl-benzofuran-2-carbonyl)-amino]-biphenyl-4-sulfonylamino}-3-methyl-butyric acid], the IC50 (MMP-13; [2]) is reported as 6.4 nM and the IC50 (MMP-2) is reported as 2060 nM.
With Cc1c(C(=O)Nc2ccc(-c3ccc(S(=O)(=O)N[C@H](C(=O)O)C(C)C)cc3)cc2)oc2cccc(N3CCOCC3)c12 [Example 114, (S)-3-methyl-2-{4′-[(3-methyl-4-morpholin-4-yl-benzofuran-2-carbonyl)-amino]-biphenyl-4-sulfonylamino}-butyric acid] the IC50 (MMP-13; [2]) was 32 nM and the IC50 (MMP-2) was 1630 nM.
Work on Cc1c(C(=O)Nc2ccc(-c3ccc(S(=O)(=O)N[C@H](C(=O)O)C(C)C)cc3)cc2)oc2ccc(Cl)c(OC(C)C)c12 [Example 115, (S)-2-{4′-[(5-Chloro-4-isopropoxy-3-methyl-benzofuran-2-carbonyl)-amino]-biphenyl-4-sulfonylamino}-3-methyl-butyric acid] yielded an IC50 (MMP-13; [1]) of 11 nM and an IC50 (MMP-2) of 3010 nM.
For COc1c(Cl)cc(Cl)c2oc(C(=O)Nc3ccc(-c4ccc(S(=O)(=O)N[C@H](C(=O)O)C(C)C)cc4)cc3)c(C)c12 [Example 117, (S)-2-{4′-[(5,7-Dichloro-4-methoxy-3-methyl-benzofuran-2-carbonyl)-amino]-biphenyl-4-sulfonylamino}-3-methyl-butyric acid], the IC50 (MMP-13; [1]) was 199 nM and the IC50 (MMP-2) was 20000 nM.
COc1c(I)ccc2oc(C(=O)Nc3ccc(-c4ccc(S(=O)(=O)N[C@H](C(=O)O)C(C)C)cc4)cc3)c(C)c12 [Example 120, (S)-2-{4′-[(5-Iodo-4-methoxy-3-methyl-benzofuran-2-carbonyl)-amino]-biphenyl-4-sulfonylamino}-3-methyl-butyric acid] was tested, and the IC50 (MMP-13; [1]) was 2.1 nM and the IC50 (MMP-2) was 1370 nM.
CC(=O)c1ccc2oc(C(=O)Nc3ccc(-c4ccc(S(=O)(=O)N[C@H](C(=O)O)C(C)C)cc4)cc3)c(C)c2c1O [Example 123, (S)-2-{4′-[(5-Acetyl-4-hydroxy-3-methyl-benzofuran-2-carbonyl)-amino]-biphenyl-4-sulfonylamino}-3-methyl-butyric acid] gave an IC50 (MMP-13; [1]) of 3.2 nM and an IC50 (MMP-2) of 63 nM.
COc1c(C#N)ccc2oc(C(=O)Nc3ccc(-c4ccc(S(=O)(=O)N[C@H](C(=O)O)C(C)C)cc4)cc3)c(C)c12 [Example 124, (S)-2-{4′-[(5-Cyano-4-methoxy-3-methyl-benzofuran-2-carbonyl)-amino]-biphenyl-4-sulfonylamino}-3-methyl-butyric acid] was tested, and the IC50 (MMP-13; [1]) was 3 nM and the IC50 (MMP-2) was 522 nM.
